For 16 compounds, IC50 results are on record in patent US9549921B2, “Heterocyclic compounds and methods of use thereof for the treatment of hepatitis C” (priority 2014, dated 2017).

Where two headings read alike, the source gives them in different places.

In one assay the test system is HCV replicon genotype 1b. Description: HCV replicon assay, genotype 1b (cell ELISA for NS3/4A). The assay is classed as cell-based, hepatitis C virus. The protocol: (§1) The HCV NS5B inhibitory activity of the present compounds may be tested using assays known in the art. The HCV NS5B polymerase inhibitors described herein have activities in a genotype 1b replicon assay as described in the Examples. The assay is performed by incubating a replicon harboring cell-line in the presence of inhibitor for a set period of time and measuring the effect of the inhibitor on HCV replicon replication either directly by quantifying replicon RNA level, or indirectly by measuring enzymatic activity of a co-encoded reporter enzyme such as luciferase or β-lactamase. By performing a series of such measurements at different inhibitor concentrations, the effective inhibitory concentration of the inhibitor (EC50 or EC90) is determined. See Jan M. Vrolijk et al., A replicons-based bioassay for the measurement of interferons in patients with chronic hepatitis C, 110 J. VIROLOGICAL METHODS 201 (2003). Such assays may also be run in an automated format for high through-put screening. See Paul Zuck et al., A cell-based β-lactamase reporter gene assay for the identification of inhibitors of hepatitis C virus replication, 334 ANALYTICAL BIOCHEMISTRY 344 (2004).
(§2) Measurement of inhibition by compounds was performed using the HCV replicon system. Several different replicons encoding different HCV genotypes or mutations were used. In addition, potency measurements were made using different formats of the replicon assay, including different ways of measurements and different plating formats. See Jan M. Vrolijk et al., A replicons-based bioassay for the measurement of interferons in patients with chronic hepatitis C, 110 J. VIROLOGICAL METHODS 201 (2003); Steven S. Carroll et al., Inhibition of Hepatitis C Virus RNA Replication by 2′-Modified Nucleoside Analogs, 278(14) J. BIOLOGICAL CHEMISTRY 11979 (2003). However, the underlying principles are common to all of these determinations, and are outlined below.
(§3) Stable neomycin phosphotransferase encoding replicons-harboring cell lines were used, so all cell lines were maintained under G418 selection prior to the assay. Potency was deteremined using a cell ELISA assay with an antibody to the replicons encoded NS3/4a protease. See Caterina Trozzi et al., In Vitro Selection and Characterization of Hepatitis C Virus Serine Protease Variants Resistant to an Active-Site Peptide Inhibitor, 77(6) J. Virol. 3669 (2003). To initiate an assay, replicon cells were plated in the presence of a dilution series of test compound in the absence of G418. Typically, the assays were performed in a 96-well plate formate for manual operation, or a 384-well plate format for automated assay. Replicon cells and compound were incubated for 96 hours. At the end of the assay, cells were washed free of media and compound, and the cells were then lysed. RNA was quantified indirectly through detection of replicon-encoded NS3/4A protein levels, through an ELISA-based assay with an antibody specific for NS3/4A. IC50 determinations were calculated as a percentage of a DMSO control by fitting the data to a four-parameter fit function and the data obtained is provided in the table below.
(§4) Data for selected compounds of the present invention was obtained for genotypes 1a and 1b using this method and is provided in the table below: […]

For another assay, the system named is HCV replicon genotype 1a. Description: HCV replicon assay, genotype 1a (cell ELISA for NS3/4A). The assay is classed as cell-based, hepatitis C virus. The protocol: as §1, §2, §3, §4
For orientation: A replicon is a self-replicating genome or part of one, used to study replication in cells.

[1] abbreviates: Hepatitis C virus, 96 h, read-out: 1b IC50 (nM), HCV genotype 1b replicon cells, 96 hours incubation, NS3/4A ELISA readout, % of DMSO control.
Setting [2] is: Hepatitis C virus, 96 h, read-out: 1a IC50 (nM), HCV genotype 1a replicon cells, 96 hours incubation, NS3/4A ELISA readout, % of DMSO control.
[3] abbreviates: read-out: 1b IC50, HCV genotype 1b replicon cells, 96 hours incubation, NS3/4A ELISA readout, % of DMSO control.
[4] abbreviates: read-out: 1a IC50, HCV genotype 1a replicon cells, 96 hours incubation, NS3/4A ELISA readout, % of DMSO control.

Take `CNC(=O)c1c(-c2ccc(F)cc2)oc2cc(N(C)S(C)(=O)=O)c([C@H]3CCCN(C(=O)c4cn(C)c5ccccc45)C3)cc12` [Example 101, 2-(4-fluorophenyl)-N-methyl-5-{(3R)-1-[(1-methyl-1H-indol-3-yl)carbonyl]piperidin-3-yl}-6-[methyl(methylsulfonyl)amino]-1-benzofuran-3-carboxamide]: the IC50 in the assay with HCV replicon genotype 1b (setting [1]) came out at 55.9 nM; in the assay on HCV replicon genotype 1a (setting [2]) it was 103 nM.

Regarding `CNC(=O)c1c(-c2ccc(F)cc2)oc2cc(N(C)S(C)(=O)=O)c([C@H]3CN(C(=O)c4cc5cccc(F)c5[nH]4)CCO3)cc12` (single isomer, unassigned) [Example 7, 5-(4-(7-fluoro-1H-indole-2-carbonyl)morpholin-2-yl)-2-(4-fluorophenyl)-N-methyl-6-(N-methylmethylsulfonamido)benzofuran-3-carboxamide], the IC50 in the assay on HCV replicon genotype 1b (setting [3]) amounted to 11.6 nM; in the assay on HCV replicon genotype 1a (setting [4]), 5.79 nM.

Turning to `CNC(=O)c1c(-c2ccc(F)cc2)oc2cc(N(C)S(C)(=O)=O)c([C@@H]3CCCN(c4nc5ccccc5n4C)C3)cc12` (single isomer, unassigned) [Example 43, 2-(4-fluorophenyl)-N-methyl-5-(1-(1-methyl-1H-benzo[d]imidazol-2-yl)piperidin-3-yl)-6-(N-methylmethylsulfonamido)benzofuran-3-carboxamide], the IC50 was determined as 93 nM in the assay on HCV replicon genotype 1b (setting [1]) and 41.2 nM with HCV replicon genotype 1a (setting [2]).

With `CNC(=O)c1c(-c2ccc(F)cc2)oc2cc(N(C)S(C)(=O)=O)c([C@@H]3CCCN(C(=O)c4nc5ccc(F)cc5[nH]4)C3)cc12` [Example 76, 5-{1-[(6-fluoro-1H-benzimidazol-2-yl)carbonyl]piperidin-3-yl}-2-(4-fluorophenyl)-N-methyl-6-[methyl(methylsulfonyl)amino]-1-benzofuran-3-carboxamide], the IC50 in the assay on HCV replicon genotype 1b (setting [1]) came out at 9.96 nM; with HCV replicon genotype 1a (setting [2]), 49.4 nM.

Regarding `CNC(=O)c1c(-c2ccc(F)cc2)oc2cc(N(C)S(C)(=O)=O)c([C@@H]3CCCN(S(=O)(=O)c4cnc5c(c4)OCCN5C)C3)cc12` [Example 127, 2-(4-fluorophenyl)-N-methyl-5-{(3S)-1-[(4-methyl-3,4-dihydro-2H-pyrido[3,2-b][1,4]oxazin-7-yl)sulfonyl]piperidin-3-yl}-6-[methyl(methylsulfonyl)amino]-1-benzofuran-3-carboxamide], the IC50 with HCV replicon genotype 1b (setting [1]) is 32.4 nM; in the assay with HCV replicon genotype 1a (setting [2]) it was 90.2 nM.

Regarding `CNC(=O)c1c(-c2ccc(F)cc2)oc2cc(N(C)S(C)(=O)=O)c([C@H]3CCCN(S(=O)(=O)/C=C/c4ccccc4)C3)cc12` [Example 79, 2-(4-fluorophenyl)-N-methyl-6-[methyl(methylsulfonyl)amino]-5-[(3R)-1-{[(E)-2-phenylethenyl]sulfonyl}piperidin-3-yl]-1-benzofuran-3-carboxamide], the IC50 in the assay on HCV replicon genotype 1b (setting [1]) is 33.1 nM; in the assay with HCV replicon genotype 1a (setting [2]), 64.8 nM.

With `CNC(=O)c1c(-c2ccc(F)cc2)oc2cc(N(C)S(C)(=O)=O)c([C@@H]3CCCN(c4nc5ccccc5n4C)C3)cc12` (single isomer, unassigned) [Example 44, 2-(4-fluorophenyl)-N-methyl-5-(1-(1-methyl-1H-benzo[d]imidazol-2-yl)piperidin-3-yl)-6-(N-methylmethylsulfonamido)benzofuran-3-carboxamide], the figures for the IC50 in the assay on HCV replicon genotype 1b (setting [3]) and in the assay on HCV replicon genotype 1a (setting [4]) were 82.4 nM and 71 nM, respectively.

With `CNC(=O)c1c(-c2ccc(F)cc2)oc2cc(N(C)S(C)(=O)=O)c([C@H]3CCCN(S(=O)(=O)c4ccccc4F)C3)cc12` [Example 136, 2-(4-fluorophenyl)-5-{(3R)-1-[(2-fluorophenyl)sulfonyl]piperidin-3-yl}-N-methyl-6-[methyl(methylsulfonyl)amino]-1-benzofuran-3-carboxamide], the IC50 in the assay with HCV replicon genotype 1b (setting [1]) stood at 40.5 nM; with HCV replicon genotype 1a (setting [2]), 58.5 nM.

With `CNC(=O)c1c(-c2ccc(F)cc2)oc2cc(N(C)S(C)(=O)=O)c([C@@H]3CCCN(S(=O)(=O)c4cc5cccc(F)c5[nH]4)C3)cc12` [Example 2, (S)-5-(1-((7-fluoro-1H-indol-2-yl)sulfonyl)piperidin-3-yl)-2-(4-fluorophenyl)-N-methyl-6-(N-methylmethylsulfonamido)benzofuran-3-carboxamide], the IC50 is 41 nM with HCV replicon genotype 1b (setting [1]) and 84.1 nM in the assay on HCV replicon genotype 1a (setting [2]).

With `CNC(=O)c1c(-c2ccc(F)cc2)oc2cc(N(C)S(C)(=O)=O)c([C@H]3CCCN(C(=O)[C@@H](NC(=O)OC(C)(C)C)c4ccccc4F)C3)cc12` [Example 94, tert-butyl {(1S)-1-(2-fluorophenyl)-2-[(3R)-3-{2-(4-fluorophenyl)-3-(methylcarbamoyl)-6-[methyl(methylsulfonyl)amino]-1-benzofuran-5-yl}piperidin-1-yl]-2-oxoethyl}carbamate], the IC50 in the assay on HCV replicon genotype 1b (setting [1]) is 168 nM; with HCV replicon genotype 1a (setting [2]), 300 nM.

On to `CNC(=O)c1c(-c2ccc(F)cc2)oc2cc(N(C)S(C)(=O)=O)c([C@@H]3CCCN(C(=O)c4oc5ccc(F)cc5c4C)C3)cc12` [Example 62, 5-{1-[(5-fluoro-3-methyl-1-benzofuran-2-yl)carbonyl]piperidin-3-yl}-2-(4-fluorophenyl)-N-methyl-6-[methyl(methylsulfonyl)amino]-1-benzofuran-3-carboxamide], for which the IC50 in the assay on HCV replicon genotype 1b (setting [1]) is 41.2 nM; in the assay on HCV replicon genotype 1a (setting [2]), 192 nM.

In the case of `CNC(=O)c1c(-c2ccc(F)cc2)oc2cc(N(C)S(C)(=O)=O)c([C@H]3CN(C(=O)c4cc5c(F)cccc5n4C)CCO3)cc12` (single isomer, unassigned) [Example 8, 5-(4-(4-fluoro-1-methyl-1H-indole-2-carbonyl)morpholin-2-yl)-2-(4-fluorophenyl)-N-methyl-6-(N-methylmethylsulfonamido)benzofuran-3-carboxamide], the results for the IC50 in the assay with HCV replicon genotype 1b (setting [1]) and in the assay with HCV replicon genotype 1a (setting [2]) were 36.9 nM and 28.2 nM, respectively.

In the case of `CNC(=O)c1c(-c2ccc(F)cc2)oc2cc(N(C)S(C)(=O)=O)c([C@H]3CCCN(S(=O)(=O)Cc4ccccn4)C3)cc12` [Example 139, 2-(4-fluorophenyl)-N-methyl-6-[methyl(methylsulfonyl)amino]-5-{(3R)-1-[(pyridin-2-ylmethyl)sulfonyl]piperidin-3-yl}-1-benzofuran-3-carboxamide], the IC50 stood at 21.1 nM in the assay on HCV replicon genotype 1b (setting [1]) and 35 nM with HCV replicon genotype 1a (setting [2]).

For `CNC(=O)c1c(-c2ccc(F)cc2)oc2cc(N(C)S(C)(=O)=O)c([C@@H]3CCCN(C(=O)c4cc5cccc(OC)c5[nH]4)C3)cc12` (single isomer, unassigned) [Example 42, 2-(4-fluorophenyl)-5-(1-(7-methoxy-1H-indole-2-carbonyl)piperidin-3-yl)-N-methyl-6-(N-methylmethylsulfonamido)benzofuran-3-carboxamide], the IC50 with HCV replicon genotype 1b (setting [3]) came out at 23.9 nM; with HCV replicon genotype 1a (setting [4]), 106 nM.

`CNC(=O)c1c(-c2ccc(F)cc2)oc2cc(N(C)S(C)(=O)=O)c([C@H]3CCCN(S(=O)(=O)c4cc5ccccc5o4)C3)cc12` [Example 83, 5-[(3R)-1-(1-benzofuran-2-ylsulfonyl)piperidin-3-yl]-2-(4-fluorophenyl)-N-methyl-6-[methyl(methylsulfonyl)amino]-1-benzofuran-3-carboxamide]: the IC50 with HCV replicon genotype 1b (setting [1]) came to 22.4 nM; with HCV replicon genotype 1a (setting [2]), 38.2 nM.

`CNC(=O)c1c(-c2ccc(F)cc2)oc2cc(N(C)S(C)(=O)=O)c([C@@H]3CCN(C(=O)c4cc5c(F)cccc5n4C)C3)cc12` (single isomer, unassigned) [Example 15, 5-(1-(4-fluoro-1-methyl-1H-indole-2-carbonyl)pyrrolidin-3-yl)-2-(4-fluorophenyl)-N-methyl-6-(N-methylmethylsulfonamido)benzofuran-3-carboxamide]: the IC50 with HCV replicon genotype 1b (setting [3]) worked out at 11.2 nM; in the assay on HCV replicon genotype 1a (setting [4]), 125 nM.
